The text below walks through data of patent publication US20210403864A1, “METHODS AND COMPOSITIONS FOR TREATING ACTIVATED G-ALPHA Q MUTANT CANCERS OR MELANOCYTIC MALIGNANCIES” (Memorial Sloan Kettering Cancer Center, priority 2018, published 2021).

Changes are numbered by the printed parent chain.

Assay in all cases: IP1 accumulation assay in mutation dependent melan-a cells
Format in all cases: cell-based, mouse

For assay [1], the target named is T1, GNAQ^G48V (Homo sapiens, UniProt P50148, G48V).
T1 construct: host or cells: melan-a (immortalized mouse melanocytes), retroviral transduction with MSCV-Puro
T1 sequence (P50148 1-359 G48V): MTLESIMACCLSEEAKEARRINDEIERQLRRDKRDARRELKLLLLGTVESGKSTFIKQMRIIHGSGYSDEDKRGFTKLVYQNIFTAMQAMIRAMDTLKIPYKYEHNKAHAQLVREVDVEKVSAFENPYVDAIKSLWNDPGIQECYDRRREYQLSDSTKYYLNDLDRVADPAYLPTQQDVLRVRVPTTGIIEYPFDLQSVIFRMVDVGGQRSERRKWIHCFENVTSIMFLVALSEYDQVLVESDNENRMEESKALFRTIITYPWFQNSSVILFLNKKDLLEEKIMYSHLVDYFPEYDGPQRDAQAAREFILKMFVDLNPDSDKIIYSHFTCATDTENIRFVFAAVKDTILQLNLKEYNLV
Here is the method: (§1) Cells were treated with increasing concentrations of YM-254890 (YM) for 3 hours (top) and 24 hours (bottom). Error bars, s.e.m. from three biological replicates, each with three technical replicates.
(§2) Cell Culture and in vitro analysis. Mutation dependent melan-a cells were generated by transducing cells with cDNAs in MSCV-PURO (retrovirus) and then selecting cells with puromycin (1 μg/ml) for two days. TPA (Sigma-Aldrich, St. Louis, Mo.) was then withdrawn from cultures. Cells with activating mutations (CYSLTR2^L129Q, GNAQ^G48V/R183Q/Q209L, KRAS^G12V, and BRAF^V600E) continued to proliferate over several passages (>2 weeks) and were then validated with qRT-PCR and immunoblots. Vector and WT controls were unable to maintain proliferation after a couple passages upon TPA withdrawal. All cells were cultured in media containing 10% FBS, L-glutamine ([…]), penicillin (100 U/ml), streptomycin (100 μg/ml). Melan-a cells provided by D. Bennett, St. George's Hospital, University of London (Johnson C P, et al., PLoS One. 12(6):1-17 (2017)), were cultured in RPMI supplemented with 200 nM TPA unless otherwise noted. HEK293T (from ATCC, Manassas, Va.) cells were cultured in DMEM-Q and UVM cells were cultured in RPMI. All cells tested negative for mycoplasma. Cell growth assays and YM dose response curves were assayed using CellTiter-glo 2.0 (Promega, Madison, Wis.) at given time points or after five days of incubation with YM and readout on a Glomax Luminometer (Promega, Madison, Wis.). IC50 values were calculated using Prism 7.0 software. Growth assays were compared to day 1 readings and dose response curves were compared to vehicle. Data shown is representative of at least three independent experiments with at least three technical replicates. Dose-response curves and growth assays were analyzed using GraphPad Prism 7.0 software.
(§3) IP1 Accumulation Assay. IP1 concentrations in GNAQ-transfected HEK293T cells, GNAQ-expressing melan-a cells and uveal melanoma cells was measured using a competitive homogenous time resolved fluorescence (HTRF) assay (CisBio, Bedford, Mass.). Briefly, 9,000 transiently transfected-HEK293T cells, 5,000 melan-a cells and 5,000 uveal melanoma cells were seeded in low-volume 384-well plates in 7 μL media for 24 hours prior YM-254890 treatment. Cells were then treated with various concentrations of YM-254890 diluted in the appropriate media at 37° C. for 3 hours or 24 hours. 1 h prior lysis, cells were supplemented with 1× Stimulation Buffer provided by the manufacturer (HEPES 10 mM, CaCl2) 1 mM, MgCl2 0.5 mM, KCl 4.2 mM, NaCl 146 mM, glucose 5.5 mM, LiCl 50 mM, pH 7.4) with 0.2% BSA and 50 mM of LiCl (to prevent IP1 degradation). Following incubation, cells were lysed by adding 3 μL/well of d2-labeled IP1 analogue as the fluorescence acceptor and the Terbium cryptate-labeled anti-IP1 mAb as the fluorescence donor, diluted in the kit-supplied lysis buffer. The plates were incubated overnight at RT and time-resolved fluorescence signals were read using the BioTek Synergy NEO plate reader (BioTek Instruments, Winooski, Vt.) at 620 nm and […]. Results were calculated as a 665 nm/620 nm signal ratio, and IP1 concentrations were interpolated from a standard curve prepared using the supplied IP1 calibrator. Results are shown as IP1 (nM). Dose-response curves and bar graphs were analyzed using GraphPad Prism 7.0 software.

The test system of assay [2] is CYSLTR2^L129Q. The conditions noted are these: 24-hour treatment. As for the experimental part:
as §1, §2, §3

Assay [3] addresses T2, GNAQ^Q209L (Homo sapiens, UniProt P50148, Q209L).
T2 construct: host or cells: melan-a (immortalized mouse melanocytes), retroviral transduction with MSCV-Puro
T2 sequence (P50148 1-359 Q209L): T1 sequence (P50148 1-359 G48V) with V48G, Q209L
Here is the method: as §1, §2, §3

Take YM-254890: the “inhibition of IP1 accumulation” value is given as “completely inhibited” in assay [1] (24-hour treatment); “completely inhibited” in assay [2]; “completely inhibited” in assay [3] (24-hour treatment); “only partially inhibited” in assay [3] (3 hours of treatment, even at high doses of YM). Moreover, the “relative sensitivity to YM (IP1 accumulation)” value in assay [1] (24-hour treatment) and in assay [2] was “most sensitive” each time. The “sensitivity of IP1 accumulation after 3 hours versus 24 hours” value in assay [1] (3 hours of treatment) and in assay [3] (3 hours of treatment) was “less sensitive” in each case. In assay [3] (24-hour treatment), the “fold less sensitive than CYSLTR2^L129Q and GNAQ^G48V mutants (IP1 accumulation)” value is given as “approximately 10 fold”.
